Earlier results on two compounds are cited in US20100028432A1, “FORMULATIONS OF ACTIVE PRINCIPLES INCORPORATED IN SLNS SUITABLE FOR TRANSDERMAL ADMINISTRATION” (NANOVECTOR S.R.L., priority 2006, published 2010).

For data set [1] the following is noted: in vivo.
For data set [2] the following is noted: intravenous bolus injection.
For data set [3] the following is noted: administered orally.
The conditions of data set [4]: transdermal systems of U.S. Pat. No. 5,508,039 containing melatonin powder and an absorption enhancer; in vitro tests.

Take `CN1CCc2cccc3c2[C@H]1Cc1ccc(O)c(O)c1-3` [Apomorphine]: the elimination time entry in data set [1] is on record as “about 33 minutes”.
In the case of `COc1ccc2[nH]cc(CCNC(C)=O)c2c1` [melatonin, N-acetyl-5-methoxytryptamine], the half-life entry in data set [2] is given as “around 40 minutes”. In addition, the bioavailability entry in data set [3] was “low and variable bioavailability”. Moreover, the plasma clearance entry in data set [3] (marked first-pass hepatic metabolism) is given as “rapid plasma clearance”. For the same compound, the half-life of melatonin in data set [4] was at most 2 h.
